Earlier results as cited in patent publication US12622903B2, “Drug products for intranasal administration and uses thereof” (Summit Biosciences Inc., priority 2020, dated 2026).

System: opioid overdose

## C=CCN1CC[C@]23c4c5ccc(O)c4O[C@H]2C(=O)CC[C@@]3(O)[C@H]1C5 [naloxone, 17-allyl-4,5a-epoxy-3,14-dihydroxymorphinan-6-one]
DOPE Project participants
  participants reporting serious adverse effects: < 1%
Of 399 overdose events where naloxone was used, participant reports
  overdose events reported reversed: 89%
